The values that follow come from patent EP2963052A2, “PEPTIDES WITH CYTOPROTECTIVE ACTIVITY” (Zamerton Holdings Limited, priority 2013, dated 2016).

Residues, ends and D or L forms follow the SMILES beside them.

The test system of series [1] is HeLa S3 cells. Put plainly: Protective effect of peptides on apoptosis and necrosis in the presence of camptothecin (Annexin-V FITC / PI flow cytofluorimetry). The note with it: HeLa cell culture, 24 hours. The class given is cell-based, human. The source says:
(§1) The experiments to study the effect of peptides on apoptosis and necrosis involved the use of reagents in the ApoTarget Annexin-V FITC Apoptosis Kit (Invitrogen, CIIIA). In addition to Annexin-V, marked by the FITC fluorescent stain, the ApoTarget Annexin-V FITC Apoptosis Kit contains propidium iodide (PI), a dye. PI can permeate only those cells whose cytoplasmic membrane is damaged, which is a characteristic sign of an advanced stage of apoptosis or necrosis. Having permeated cells with damaged cell membrane, PI binds itself to the DNA. The «red» fluorescence of resulting complexes is identified with a flow cytofluorimeter.
(§2) Therefore, the procedure of double staining (Annexin-V FITC plus PI) and the process of flow cytofluorimetry can be used to distinguish 3 cell populations and determine their percentage relationship: 1) non-apoptotic cells (Annexin-V-negative and PI-negative), 2) cells at an early stage of apoptosis (Annexin-V-positive and PI-negative), 3) necrotic cells or cells at an advanced stage of apoptosis (Annexin-V- positive and PI- positive). An increase in the percentage of apoptotic and necrotic cells can serve as a measure of how the compounds added to the culture medium act on these processes. Camptothecin (Camptothecin, Sigma, CIIIA), which is recommended by the manufacturer, was used as control in the experiments because of its pronounced ability to induce apoptosis and necrosis of cells, especially tumor ones.
(§3) Peptide solutions in sterile PBS with concentrations of 1 mg/ml were prepared immediately before the experiments to study the peptides' effect on apoptosis and necrosis. The same solutions that were stored in sterile test tubes at +4°C were used to study the proliferation activity. Working dilutions of peptides in the cell cultivation medium were prepared on the day of each experiment. A sterile plastic 96-well plate (Corning, USA) was used for this purpose. The dilutions were prepared so that the introduction of 25 µl of each working dilution in an experimental well with cultivated cells would result in final concentrations of peptides equal to 400, 200, 100 and 50 ng/ml.
(§4) The HeLa S3 and NIH 3T3 cells were cultivated with the use of reagents manufactured by Invitrogen (USA) and plastic vials, plates, pipettes and filters of Corning (USA). The cells were cultivated in DMEM, prepared with a dry concentrate dissolved in pyrogen-free distilled water (Millipore, USA). The medium contained 10 % FBS, 2 mM of glutamine and penicillin-streptomycin (diluted according to the vendor's recommendations). HeLa S3 and NIH 3T3 were grown in vials T150 at +37 °C in the atmosphere of 5.6 % CO2. The cells were constantly maintained in the logarithmic growth phase, to this end they were passed at least 2 times a week, with trypsin used to remove cells from the walls of the culture vials. Live cells were counted in a hemacytometer after staining the suspension aliquot with trypan blue.
(§5) The HeLa S3 and NIH 3T3 cells were removed from the surface of the culture vials and counted; the concentration was moved to 10^5 cell/ml, and the resulting suspensions were put in doses of 1 ml in the wells of a 24-well plate.
(§6) Having made sure on the following day that the cells adhered to the plate's surface, the culture medium was replaced with a fresh one in each well.
(§7) Camptothecin was added in the control wells (positive control - stimulation of apoptosis and necrosis) to the final concentration of 50 µM that had been determined in preliminary experiments with the NIH 3T3 and HeLa S3 cells. 25 µl of fresh culture medium were added in the control wells (negative control), 25 µl of working peptide dilutions were added in each experimental well (each working dilution - twice), as well as camptothecin in the same final concentration. Incubation was conducted at +37 °C. […]

For series [2], the system named is NIH 3T3 cells. Described as above. The class given is cell-based, mice. The note with it: NIH3T3 cell culture, 24 hours.
Source text: as §1, §2, §3, §4, §5, §6, §7

A short description of series [3]: Stability of peptides in storage in solution (HPLC analysis). The note with it: 0.05 M ammonium acetate buffer, approx. 1 mg/ml.
Method: The peptides were dissolved in 0.05 M of an ammonium acetate buffer with pH 4.5 and pH 7.5 so that their concentrations achieved approximately 1 mg/ml. The solutions were sterilely filtered and kept in sterile, well-sealed vials. Upon expiration of the storage period the substances were analyzed with HPLC.
The mark [4] stands for this setting: peptide 50 ng/ml + camptothecin 50 µM.
Setting [5] is: peptide 100 ng/ml + camptothecin 50 µM.
Where [6] appears, read: peptide 200 ng/ml + camptothecin 50 µM.
The mark [7] stands for this setting: peptide 400 ng/ml + camptothecin 50 µM.

Regarding `C[C@H](N)C(=O)N[C@@H](CC(=O)O)C(=O)N[C@@H](CCC(=O)O)C(=O)N[C@@H](CCCNC(=N)N)C(=O)O` [ADER, H-Ala-Asp-Glu-Arg-OH] (H-ADER-OH), the Apoptosis in series [1] (setting [4]) worked out at 2%; in series [1] (setting [5]), 2.1%; in series [1] (setting [6]), 1.5%; in series [1] (setting [7]), 2.3%; in series [2] (setting [4]) it was 3%; in series [2] (setting [5]), 2.2%. The Apoptosis in series [2] (setting [6]) was determined as 2.5%; in series [2] (setting [7]) it was 4.1%. The Necrosis is on record as 5.2% in series [1] (setting [4]); 4.1% in series [1] (setting [5]); 4% in series [1] (setting [6]); 4% in series [1] (setting [7]); 4% in series [2] (setting [4]); 3.1% in series [2] (setting [5]). The results for the Necrosis in series [2] (setting [6]) and in series [2] (setting [7]) were 3.5% and 5%, respectively. The “Peptide stability in storage” value in series [3] (1hour, pH 4.5, 22°C) amounted to 98.1; in series [3] (1hour, pH 7.5, 22°C) it was 98.1; in series [3] (10 days, pH 4.5, 22°C) it was 98.0; in series [3] (10 days, pH 7.5, 22°C), 98.0; in series [3] (30 days, pH 4.5, 22°C) it was 97.9; in series [3] (30 days, pH 7.5, 22°C) it was 97.7. Besides, the “Peptide stability in storage” value worked out at 98.0 in series [3] (60 days, pH 4.5, 22°C); 97.7 in series [3] (60 days, pH 7.5, 22°C); 97.8 in series [3] (90 days, pH 4.5, 22°C); 97.6 in series [3] (90 days, pH 7.5, 22°C).
In the case of `CC(=O)N[C@@H](CC(=O)O)C(=O)N[C@@H](CCC(=O)O)C(=O)O` [AcDE, Ac-Asp-Glu-OH] (Ac-Asp-Glu-OH), the Apoptosis in series [1] (setting [4]) stood at 21%; in series [1] (setting [5]) it was 17%; in series [1] (setting [6]), 15%; in series [1] (setting [7]), 22%; in series [2] (setting [4]) it was 35%; in series [2] (setting [5]) it was 30%. Moreover, the values for the Apoptosis in series [2] (setting [6]) and in series [2] (setting [7]) were 22% and 19%, respectively. Also, the Necrosis amounted to 13% in series [1] (setting [4]); 11% in series [1] (setting [5]); 8% in series [1] (setting [6]); 7% in series [1] (setting [7]); 50% in series [2] (setting [4]); 46% in series [2] (setting [5]). In addition, the Necrosis came to 34% in series [2] (setting [6]) and 28% in series [2] (setting [7]).
As for `CCNC(=O)[C@H](CCC(=O)O)NC(=O)[C@@H](N)CC(=O)O` [DENHEt, H-Asp-Glu-NH-CH2-CH3] (HELM PEPTIDE1{D.E.[CCN[*:1]]}$$$$V2.0), the Apoptosis in series [1] (setting [4]) turned out to be 15%; in series [1] (setting [5]), 9%; in series [1] (setting [6]) it was 8%; in series [1] (setting [7]), 8%; in series [2] (setting [4]), 25%; in series [2] (setting [5]), 23%. The Apoptosis in series [2] (setting [6]) turned out to be 21%; in series [2] (setting [7]) it was 18%. Further, the Necrosis in series [1] (setting [4]) came to 20%; in series [1] (setting [5]) it was 18%; in series [1] (setting [6]), 13%; in series [1] (setting [7]), 16%; in series [2] (setting [4]) it was 13%; in series [2] (setting [5]) it was 12%. Also, the Necrosis in series [2] (setting [6]) was found to be 11%; in series [2] (setting [7]) it was 7%. The “Peptide stability in storage” value in series [3] (1hour, pH 4.5, 22°C) amounted to 98.1; in series [3] (1hour, pH 7.5, 22°C), 98.2; in series [3] (10 days, pH 4.5, 22°C), 98.3; in series [3] (10 days, pH 7.5, 22°C) it was 98.2; in series [3] (30 days, pH 4.5, 22°C), 98.15; in series [3] (30 days, pH 7.5, 22°C), 98.10. Moreover, the “Peptide stability in storage” value in series [3] (60 days, pH 4.5, 22°C) was determined as 98.0; in series [3] (60 days, pH 7.5, 22°C), 98.0; in series [3] (90 days, pH 4.5, 22°C), 97.9; in series [3] (90 days, pH 7.5, 22°C), 97.85.
As to `COC(=O)[C@H](CCC(=O)O)NC(=O)[C@@H](N)CC(=O)O` [DEOMe, H-Asp-Glu-OCH3] (HELM PEPTIDE1{D.E.[CO[*:1]]}$$$$V2.0), the Apoptosis in series [1] (setting [4]) worked out at 4%; in series [1] (setting [5]), 2.1%; in series [1] (setting [6]), 2.3%; in series [1] (setting [7]) it was 2.5%; in series [2] (setting [4]), 4%; in series [2] (setting [5]), 2.5%. For the same molecule, the Apoptosis is given as 3% in series [2] (setting [6]) and 3.3% in series [2] (setting [7]). The Necrosis in series [1] (setting [4]) was 5%; in series [1] (setting [5]), 4.5%; in series [1] (setting [6]), 4.5%; in series [1] (setting [7]) it was 5.5%; in series [2] (setting [4]), 6%; in series [2] (setting [5]) it was 4%. Further, the Necrosis is 5% in series [2] (setting [6]) and 6% in series [2] (setting [7]). Besides, the “Peptide stability in storage” value in series [3] (1hour, pH 4.5, 22°C) stood at 98.0; in series [3] (1hour, pH 7.5, 22°C), 98.0; in series [3] (10 days, pH 4.5, 22°C) it was 98.1; in series [3] (10 days, pH 7.5, 22°C) it was 98.0; in series [3] (30 days, pH 4.5, 22°C), 97.7; in series [3] (30 days, pH 7.5, 22°C), 97.65. Also, the “Peptide stability in storage” value was determined as 97.55 in series [3] (60 days, pH 4.5, 22°C); 97.5 in series [3] (60 days, pH 7.5, 22°C); 97.5 in series [3] (90 days, pH 4.5, 22°C); 97.2 in series [3] (90 days, pH 7.5, 22°C).
Consider H-Leu-Asp-Glu-OH [LDE], for which the Apoptosis in series [1] (setting [4]) is given as 1%; in series [1] (setting [5]), 1.4%; in series [1] (setting [6]), 0.5%; in series [1] (setting [7]), 1%; in series [2] (setting [4]) it was 2%; in series [2] (setting [5]) it was 2.5%. Moreover, the Apoptosis worked out at 1.6% in series [2] (setting [6]) and 2.5% in series [2] (setting [7]). The Necrosis came to 2.5% in series [1] (setting [4]); 3.1% in series [1] (setting [5]); 2.2% in series [1] (setting [6]); 2.1% in series [1] (setting [7]); 3.7% in series [2] (setting [4]); 3.8% in series [2] (setting [5]). For the same molecule, the values for the Necrosis in series [2] (setting [6]) and in series [2] (setting [7]) were 3.5% and 3.4%, respectively. For the same molecule, the “Peptide stability in storage” value in series [3] (1hour, pH 4.5, 22°C) is recorded as 96.5; in series [3] (1hour, pH 7.5, 22°C) it was 96.5; in series [3] (10 days, pH 4.5, 22°C), 96.4; in series [3] (10 days, pH 7.5, 22°C), 96.4; in series [3] (30 days, pH 4.5, 22°C), 96.4; in series [3] (30 days, pH 7.5, 22°C) it was 96.4. Besides, the “Peptide stability in storage” value is recorded as 96.2 in series [3] (60 days, pH 4.5, 22°C); 96.2 in series [3] (60 days, pH 7.5, 22°C); 96.2 in series [3] (90 days, pH 4.5, 22°C); 95.6 in series [3] (90 days, pH 7.5, 22°C).
